Reference: patent publication US20240238445A1, “INHIBITORS AND USES THEREOF” (NEURACLE SCIENCE CO., LTD., priority 2021, published 2024)
Square brackets hold non-standard residues; d marks the D form. Ends that are not written are not given here.

Tested on: hippocampal neurons co-treated with toxic Aβ oligomer
Test: Amyloid beta-induced synapse loss in mouse primary hippocampal neurons
Format: cell-based
Conditions: 6.6 nM
Description: Alzheimer's disease (AD) is tightly associated with the dysmetabolism of amyloid-β (Aβ). To begin assessing whether the polypeptides provided herein (i.e., comprising the FAM19A5 binding domain of LRRC4 protein family members) could have any therapeutic effects on AD, the effect of various FB-21 peptide fragments described herein on the deformation of synapse induced by toxic Aβ oligomer and following structural recovery was assessed. Specifically, the following FB-21 peptide fragments were tested: FB-21, FB-JM-31 and FB-BBB-39 (see Example 10).
Aβ42 (#20276) peptide was purchased from AnaSpec (Fremont, USA). […]
Hippocampal neurons were treated with 6.6 nM FB-21, 6.6 nM of FB-13-JM and 6.6 nM of FB-13-BBBX2 at 14, 17 and 20 DIV to determine the level of synaptogenesis at 21 DIV by immunostaining SYP, a presynapse marker protein and PSD95, a postsynapse marker protein. To quantify fluorescence intensity for SYN and PSD95 and number of colocalized voxels between SYN and PSD95 signals, z-stack confocal images of 3 μm in depth were converted to 3D images using IMARIS software (IMARIS9.0, Bitplane AG, Zurich, Switzerland). The “Surface tool” of the IMARIS software was used to exclude all the signals detected in neuronal cell bodies, and number of colocalized voxels between SYN and PSD95 signals in neurites were calculated using the “Coloc tool”. […]

nYTYFTTVTVETLETQPGEEALDEVMKTTKa ([dN]YTYFTTVTVETLETQPGEEALDEVMKTTK[dA]; also: terminal modifications n and a on first and last residues) [FB peptide with JM sequence]
colocalized voxels for PSD95 and synaptophysin: significant increase in colocalized voxels
